# Measurements published in patent US7063948B1, “Uses of antibodies against AChE and peptides thereof” (Yissum Research Development Company of the Hebrew …, priority 1999, dated 2006).
# Assay: Evans Blue dye penetration into brain after confined swim stress
# Assay type: in vivo
# Details: FIG. 6A
# Description: The above results were confirmed in animal experiments.
smiles,measurement,setting,value
Cc1cc(-c2ccc(/N=N/c3ccc4c(S(=O)(=O)O)cc(S(=O)(=O)O)c(N)c4c3O)c(C)c2)ccc1/N=N/c1ccc2c(S(=O)(=O)O)cc(S(=O)(=O)O)c(N)c2c1O [Evans Blue],dye penetration into the brain,nonstressed control mice,very low levels
same,dye penetration into the brain,stressed mice,a large amount of the dye penetrates the brain
